# Active and inactive are the calls of the source.
# Key:
# [1] = tested on: Vesicular stomatitis virus; assay: Antiviral activity against vesicular stomatitis virus; type: functional, organism-based
# Vaccinia virus = assay: Antiviral activity against vaccinia virus; type: functional, organism-based; settings: Orthopoxvirus vaccinia
# Reovirus sp. = assay: Antiviral activity against Reovirus; type: functional, organism-based
# [2] = tested on: Human immunodeficiency virus 1; assay: Antiviral activity against HIV1; type: functional, organism-based
# [3] = Cytotoxicity against human MT4 cells after 96 hrs by MTT method; type: cell-based
# [4] = tested on: Bovine viral diarrhea virus 1; assay: Antiviral activity against BVDV NADL in MDBK cells assessed as protection from virus-induced cytopathogenicity by MTT method; type: functional, organism-based; settings: Bovine viral diarrhea virus isolates and strains
# Yellow fever virus = assay: Antiviral activity against YFV in BHK cells assessed as protection from virus-induced cytopathogenicity by MTT method; type: functional, organism-based
# [5] = tested on: Respiratory syncytial virus; assay: Antiviral activity against RSV A2 in VERO76 cells assessed as reduction of plaque number by MTT method; type: functional, organism-based; settings: human respiratory syncytial virus, A2, Vero 76
# Coxsackievirus B2 = assay: Antiviral activity against coxsackie B2 virus; type: functional, organism-based
# Poliovirus 1 = assay: Antiviral activity against Human poliovirus 1 Sabin; type: functional
SMILES,Activity [1],Activity (Vaccinia virus),Activity (Reovirus sp.),Activity [2],CC50 at 96 h [3] [µM],EC50 [4] [µM],EC50 (Yellow fever virus) [µM],EC50 [5] [µM],Activity (Coxsackievirus B2),Activity (Poliovirus 1)
O=c1ccc2ccc(O)c(CN3CCCCC3)c2o1,inactive,inactive,inactive,inactive,> 100,> 100,> 100,> 100,inactive,inactive
COc1ccc2c(=O)c(Cc3c(OC(C)=O)ccc4ccc(=O)oc34)c(N3CCCC3)oc2c1,inactive,inactive,inactive,inactive,> 100,> 100,> 100,> 100,–,inactive
COc1ccc2c(=O)c(Cc3c(O)ccc4ccc(=O)oc34)c(N3CCCC3)oc2c1,inactive,inactive,inactive,inactive,> 100,> 100,> 100,> 100,–,inactive
COc1ccc2c(=O)c(Cc3c(O)ccc4c(C)cc(=O)oc34)c(N3CCCC3)oc2c1,inactive,inactive,inactive,inactive,> 100,> 100,> 100,> 100,–,inactive
CCOC(=O)N1CCN(Cc2c(O)ccc3c(C)cc(=O)oc23)CC1,inactive,inactive,inactive,inactive,> 100,> 100,> 100,≥ 100,–,inactive
CC(=O)Oc1ccc2c(C)cc(=O)oc2c1Cc1c(N(C)C)oc2ccc3ccccc3c2c1=O,inactive,inactive,inactive,inactive,> 100,> 100,> 100,> 13,–,inactive
COc1ccc2[nH]cc(Cc3c(OC(C)=O)ccc4c(C)cc(=O)oc34)c2c1,inactive,inactive,inactive,inactive,72,> 100,> 100,> 100,–,inactive
COc1ccc2c(=O)c(Cc3c(OC(C)=O)ccc4c(C)cc(=O)oc34)c(N(C)C)oc2c1,inactive,inactive,inactive,inactive,42,> 28,> 100,25,–,inactive

# Reference: ChEMBL document CHEMBL1144007, “Activity of Mannich bases of 7-hydroxycoumarin against Flaviviridae” (Bioorg Med Chem, 2008)
